Source: US8133907B2, “Pyridine derivatives as dipeptedyl peptidase inhibitors” (Eli Lilly and Company, priority 2005, dated 2012)
Counter-ions that a name gives are not always drawn.

Target: T1, human recombinant DPIV enzyme (Homo sapiens, UniProt P27487)
T1 construct: Secreted DPIV (lacking membrane anchor) is enriched from HEK293 cell culture supernatant; made in house; host or cells: HEK293
Assay: Human Recombinant DPIV Activity Assay (fluorometric end point, Gly-Pro-AMC substrate)
Assay type: biochemical
Conditions: enriched human recombinant DPIV enzyme (21.3 μU/μl), Gly-Pro-AMC 0.02 mM, 12 points concentration response curve, duplicate
Description: Human Recombinant DPIV Activity Assay
The DPIV assay uses a fluorometric end point assay (excitation 355 nm; emission 460 nm), enriched human recombinant DPIV enzyme (21.3 μU/μl), and Gly-Pro-AMC (Bachem I-1225) as substrate (0.02 mM). Secreted DPIV (lacking membrane anchor) is enriched from HEK293 cell culture supernatant by ultrafiltration, ultra-centrifugation, and size-exclusion chromatography. IC50 values of the compounds are calculated based on a 12 points concentration response curve. Each concentration is measured in duplicate. The assay is validated by plate variability and conformity, inter-plate variability, signal window, and minimum significant ration of IC50. A MSR is calculated based on a test/retest analysis and a retrospective analysis. The MSR value is 1.8.

T1 sequence (P27487 29-766 limits assumed): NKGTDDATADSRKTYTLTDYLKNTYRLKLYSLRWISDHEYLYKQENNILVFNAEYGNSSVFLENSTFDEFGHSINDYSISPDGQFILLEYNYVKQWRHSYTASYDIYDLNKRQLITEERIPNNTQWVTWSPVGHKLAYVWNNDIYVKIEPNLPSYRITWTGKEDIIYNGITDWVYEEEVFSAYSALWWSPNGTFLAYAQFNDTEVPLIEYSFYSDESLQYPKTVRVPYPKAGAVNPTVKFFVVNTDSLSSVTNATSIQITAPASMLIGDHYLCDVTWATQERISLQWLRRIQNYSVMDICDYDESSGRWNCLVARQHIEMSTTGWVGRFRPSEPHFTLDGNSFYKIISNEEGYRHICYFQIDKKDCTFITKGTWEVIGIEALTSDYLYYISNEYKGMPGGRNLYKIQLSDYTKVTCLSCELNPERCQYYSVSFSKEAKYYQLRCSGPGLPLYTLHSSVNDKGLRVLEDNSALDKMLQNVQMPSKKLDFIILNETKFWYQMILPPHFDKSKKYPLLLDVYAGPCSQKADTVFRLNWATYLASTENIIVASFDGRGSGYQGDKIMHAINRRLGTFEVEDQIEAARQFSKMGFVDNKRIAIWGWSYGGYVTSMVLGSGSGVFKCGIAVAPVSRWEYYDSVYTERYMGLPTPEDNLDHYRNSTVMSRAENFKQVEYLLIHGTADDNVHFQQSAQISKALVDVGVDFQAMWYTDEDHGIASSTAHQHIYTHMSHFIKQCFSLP

Cc1ccc(C)c(C[C@@H](N)[C@@H](O)Cc2ncccc2C(=O)NC(C)(C)C)c1 [Example 8, 2-[(2S,3R)-3-Amino-4-(2,5-dimethyl-phenyl)-2-hydroxy-butyl]-N-tert-butyl-nicotinamide Dihydrochloride]
IC50: 30 nM

CC(C)(C)NC(=O)c1cccnc1C[C@H](O)[C@H](N)Cc1cc(F)ccc1C(F)(F)F (racemic) [Example 10, 2-[(2SR,3RS)-3-Amino-4-(5-fluoro-2-trifluoromethylphenyl)-2-hydroxybutyl]-N-tert-butylnicotinamide Dihydrochloride]
IC50: 342 nM

CC(C)(NC(=O)c1cccnc1C[C@H](O)[C@H](N)Cc1ccccc1F)c1ccccc1 [Example 23, 2-[(2S,3R)-3-Amino-4-(2-fluoro-phenyl)-2-hydroxy-butyl]-N-(1-methyl-1-phenyl-ethyl)-nicotinamide Dihydrochloride]
IC50: 22 nM

N[C@H](Cc1ccccc1F)[C@@H](O)Cc1ccccn1 [Example 27, (2S,3R)-3-Amino-4-(2,-fluoro-phenyl)-1-pyridin-2-yl-butan-2-ol Dihydrochloride]
IC50: 232 nM
